Data from patent US20250114359A1, “METHODS FOR […] G[…]/OR HEXOKINASE” (UNIVERSITY OF SOUTH CAROLINA, priority 2023, published 2025).
pKi: −log10 of the molar value.

Biological target: Trypanosoma cruzi glucokinase (TcGlcK) (Trypanosoma cruzi, UniProt Q4E4E1)
Assay: Determination of Ki values by type 1 and type 2 Dixon plots;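 also: compounds supplied as 10 mM DMSO stocks (100 µL format), with a non-inhibitory compound run alongside for comparison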
Format: biochemical
Experimental: The inhibition constant can be determined by development of a Dixon plot (either type 1 or type 2) according to standard practice, and as utilized herein refers to the inhibitor concentration at which half maximum inhibition is determined for a 100 μL/10 mM format in DMSO.
Determination of the Ki values for inhibitors was performed by creation of both type 1 and type 2 Dixon plots. The format included 100 μL/10 mM in DMSO.

Chain of Trypanosoma cruzi glucokinase (TcGlcK) (Q4E4E1 1-376): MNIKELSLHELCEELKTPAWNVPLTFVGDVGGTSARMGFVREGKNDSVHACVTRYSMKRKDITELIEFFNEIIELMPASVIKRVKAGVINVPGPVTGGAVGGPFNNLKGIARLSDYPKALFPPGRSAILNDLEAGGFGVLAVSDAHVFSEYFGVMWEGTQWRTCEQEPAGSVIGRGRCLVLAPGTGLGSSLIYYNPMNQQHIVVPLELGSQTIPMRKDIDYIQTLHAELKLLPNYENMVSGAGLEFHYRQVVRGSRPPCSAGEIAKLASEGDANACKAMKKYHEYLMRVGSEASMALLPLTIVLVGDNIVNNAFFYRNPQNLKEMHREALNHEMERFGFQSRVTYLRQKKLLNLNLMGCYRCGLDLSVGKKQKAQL

Structure (SMILES) | pKi
CCCC(CCC)/N=C/c1c(O)c(O)c(C(C)C)c2cc(C)c(-c3c(C)cc4c(C(C)C)c(O)c(O)c(/C=N/C(CCC)CCC)c4c3O)c(O)c12 (atropisomer, axis not shown) [Inhibitor 46] | 4.00
COc1cc(/N=C/c2c(O)c(O)c(C(C)C)c3cc(C)c(-c4c(C)cc5c(C(C)C)c(O)c(O)c(/C=N/c6ccc(C)c(OC)c6)c5c4O)c(O)c23)ccc1C (atropisomer, axis not shown) [Inhibitor 47] | 4.54
COc1c(C)cc(/N=C/c2c(O)c(O)c(C(C)C)c3cc(C)c(-c4c(C)cc5c(C(C)C)c(O)c(O)c(/C=N/c6cc(C)c(OC)c(C)c6)c5c4O)c(O)c23)cc1C (atropisomer, axis not shown) [Inhibitor 49] | 4.79
Cc1cc2c(C(C)C)c(O)c(O)c(/C=N/c3ccc4c(c3)CCN4S(C)(=O)=O)c2c(O)c1-c1c(C)cc2c(C(C)C)c(O)c(O)c(/C=N/c3ccc4c(c3)CCN4S(C)(=O)=O)c2c1O (atropisomer, axis not shown) [Inhibitor 51] | 6.10
Cc1ccc(O)c(/N=C/c2c(O)c(O)c(C(C)C)c3cc(C)c(-c4c(C)cc5c(C(C)C)c(O)c(O)c(/C=N/c6cc(C)ccc6O)c5c4O)c(O)c23)c1 (atropisomer, axis not shown) [Inhibitor 54] | 5.52
COc1ccc(CC(=O)N/N=C/c2c(O)c(O)c(C(C)C)c3cc(C)c(-c4c(C)cc5c(C(C)C)c(O)c(O)c(/C=N/NC(=O)Cc6ccc(OC)c(OC)c6)c5c4O)c(O)c23)cc1OC (atropisomer, axis not shown) [Inhibitor 55] | 4.38
Cc1cc2c(C(C)C)c(O)c(O)c(/C=N/Nc3nnnn3-c3ccccc3)c2c(O)c1-c1c(C)cc2c(C(C)C)c(O)c(O)c(/C=N/Nc3nnnn3-c3ccccc3)c2c1O (atropisomer, axis not shown) [Inhibitor 60] | 4.27
Cc1cc2c(c(O)c1-c1c(C)cc3c(c1O)/C(=C/NCc1cccnc1)C(=O)C(O)=C3C(C)C)/C(=C/NCc1cccnc1)C(=O)C(O)=C2C(C)C (atropisomer, axis not shown) [Inhibitor 74] | 3.91
Cc1cc2c(C(C)C)c(O)c(O)c(/C=N/CCOc3ccccc3F)c2c(O)c1-c1c(C)cc2c(C(C)C)c(O)c(O)c(/C=N/CCOc3ccccc3F)c2c1O (atropisomer, axis not shown) [Inhibitor 76] | 3.98
Cc1ccc(OCC/N=C/c2c(O)c(O)c(C(C)C)c3cc(C)c(-c4c(C)cc5c(C(C)C)c(O)c(O)c(/C=N/CCOc6ccc(C)cc6Br)c5c4O)c(O)c23)c(Br)c1 (atropisomer, axis not shown) [Inhibitor 77] | 4.37
Cc1cc(OCC/N=C/c2c(O)c(O)c(C(C)C)c3cc(C)c(-c4c(C)cc5c(C(C)C)c(O)c(O)c(/C=N/CCOc6cc(C)c(Cl)c(C)c6Cl)c5c4O)c(O)c23)c(Cl)c(C)c1Cl (atropisomer, axis not shown) [Inhibitor 79] | 3.90
Cc1cc2c(C(C)C)c(O)c(O)c(/C=N/CCOc3ccc(C4CCCCC4)cc3)c2c(O)c1-c1c(C)cc2c(C(C)C)c(O)c(O)c(/C=N/CCOc3ccc(C4CCCCC4)cc3)c2c1O (atropisomer, axis not shown) [Inhibitor 80] | 4.93
Cc1cc2c(C(C)C)c(O)c(O)c(/C=N/CCOc3ccc4c(c3)CCC4)c2c(O)c1-c1c(C)cc2c(C(C)C)c(O)c(O)c(/C=N/CCOc3ccc4c(c3)CCC4)c2c1O (atropisomer, axis not shown) [Inhibitor 82] | 4.00
CCCSCC/N=C/c1c(O)c(O)c(C(C)C)c2cc(C)c(-c3c(C)cc4c(C(C)C)c(O)c(O)c(/C=N/CCSCC)c4c3O)c(O)c12 (atropisomer, axis not shown) [Inhibitor 83] | 4.07
Cc1cc2c(c(O)c1-c1c(C)cc3c(c1O)/C(=C/NCSN)C(=O)C(O)=C3C(C)C)/C(=C/NCSN)C(=O)C(O)=C2C(C)C (atropisomer, axis not shown) [Inhibitor 85] | 4.52
Cc1cc2nc[nH]c2c(/N=C/c2c(O)c(O)c(C(C)C)c3cc(C)c(-c4c(C)cc5c(C(C)C)c(O)c(O)c(/C=N/c6c(C)c(C)cc7nc[nH]c67)c5c4O)c(O)c23)c1C (atropisomer, axis not shown) [Inhibitor 86] | 5.59

Structure (SMILES) | pKi
Cc1cc2c(C(C)C)c(O)c(O)c(/C=N/c3cccc(N4CCCC4=O)c3)c2c(O)c1-c1c(C)cc2c(C(C)C)c(O)c(O)c(/C=N/c3cccc(N4CCCC4=O)c3)c2c1O (atropisomer, axis not shown) [Inhibitor 87] | 4.75
Cc1cc(C)cc(OCC(=O)C/N=C/c2c(O)c(O)c(C(C)C)c3cc(C)c(-c4c(C)cc5c(C(C)C)c(O)c(O)c(/C=N/NC(=O)COc6cc(C)cc(C)c6)c5c4O)c(O)c23)c1 [Inhibitor 3] | 4.22
Cc1cc(C(=O)N/N=C/c2c(O)c(O)c(C(C)C)c3cc(C)c(-c4c(C)cc5c(C(C)C)c(O)c(O)c(/C=N/NC(=O)c6cc(C)[nH]n6)c5c4O)c(O)c23)n[nH]1 [Inhibitor 4] | 4.72
Cc1cc2c(C(C)C)c(O)c(O)c(/C=N/NC(=O)C(C)C)c2c(O)c1-c1c(C)cc2c(C(C)C)c(O)c(O)c(/C=N/NC(=O)C(C)C)c2c1O [Inhibitor 6] | 4.52
Cc1cc2c(C(C)C)c(O)c(O)c(/C=N/Nc3nc4ccccc4[nH]c3=O)c2c(O)c1-c1c(C)cc2c(C(C)C)c(O)c(O)c(/C=N/Nc3nc4ccccc4[nH]c3=O)c2c1O [Inhibitor 7] | 5.42
Cc1cc2c(C(C)C)c(O)c(O)c(/C=N/NCc3ccccc3Cl)c2c(O)c1-c1c(C)cc2c(C(C)C)c(O)c(O)c(/C=N/NCc3ccccc3Cl)c2c1O [Inhibitor 8] | 4.25
Cc1cc2c(C(C)C)c(O)c(O)c(/C=N/Nc3cccc(Cl)n3)c2c(O)c1-c1c(C)cc2c(C(C)C)c(O)c(O)c(/C=N/Nc3cccc(Cl)n3)c2c1O [Inhibitor 9] | 4.96
Cc1ccc(OCC/N=C/c2c(O)c(O)c(C(C)C)c3cc(C)c(-c4c(C)cc5c(C(C)C)c(O)c(O)c(/C=N/CCOc6ccc(C)cc6)c5c4O)c(O)c23)cc1 [Inhibitor 10] | 5.47
COc1ccc(OC)c(/N=C/c2c(O)c(O)c(C(C)C)c3cc(C)c(-c4c(C)cc5c(C(C)C)c(O)c(O)c(/C=N/c6cc(OC)ccc6OC)c5c4O)c(O)c23)c1 [Inhibitor 11] | 4.52
CCOC(=O)Nc1ccc(/N=C/c2c(O)c(O)c(C(C)C)c3cc(C)c(-c4c(C)cc5c(C(C)C)c(O)c(O)c(/C=N/c6ccc(NC(=O)OCC)cc6)c5c4O)c(O)c23)cc1 [Inhibitor 12] | 2.33
Cc1cc2c(c(O)c1-c1c(C)cc3c(c1O)/C(=C\Nc1ccc(S(=O)(=O)NC(=N)N)cc1)C(=O)C(O)=C3C(C)C)/C(=C/Nc1ccc(S(=O)(=O)NC(=N)N)cc1)C(=O)C(O)=C2C(C)C [Inhibitor 16] | 5.99
Cc1cc2c(c(O)c1-c1c(C)cc3c(c1O)/C(=C\Nc1c(O)cc(S(=O)(=O)O)c4ccccc14)C(=O)C(O)=C3C(C)C)/C(=C/Nc1c(O)cc(S(=O)(=O)O)c3ccccc13)C(=O)C(O)=C2C(C)C [Inhibitor 29] | 5.02
Cc1cc2c(c(O)c1-c1c(C)cc3c(c1O)/C(=C/Nc1cccc(C(=C4C=CC(=N)C=C4)c4ccc(N)cc4)c1)C(=O)C(O)=C3C(C)C)/C(=C/Nc1cccc(C(=C3C=CC(=N)C=C3)c3ccc(N)cc3)c1)C(=O)C(O)=C2C(C)C [Inhibitor 30] | 5.41
CC1=C(C2=C(C)C(=O)c3c(c(C=O)c(O)c(O)c3C(C)C)C2=O)C(=O)c2c(C=O)c(O)c(O)c(C(C)C)c2C1=O [Inhibitor 31] | 3.02
Cc1cc2c(c(O)c1-c1c(C)cc3c(c1O)C(C=C1C(=O)NC(=O)NC1=O)C(=O)C(O)=C3C(C)C)C(C=C1C(=O)NC(=O)NC1=O)C(=O)C(O)=C2C(C)C (stereo not shown) [Inhibitor 32] | 4.98
